According to patent publication US20240299562A1 (priority 2020, published 2024):
Where two headings read alike, the source gives them in different places. Where a SMILES comes first, the peptide text is derived from it.

Assays:
[1] = WST-1 cell viability, normal HME-1 cells; format: cell-based, human; settings: human; HME-1 normal cells; 72 hrs, WST-1 (Table 2); read-out: Maximal efficacy, cytotoxicity (%) at 100 μM
Experimental: (§1) All commercial cell lines were purchased at ATCC (LGC Standards SARL, France). Cells were seeded in 96-well plates according to their optimal seeding density, varying between 5.000 and 10.000 cells/well. After attachment overnight, 10-point serial titrations (1:5) were prepared in their equivalent complete media as recommended by ATCC, starting from the 10 mM stock solutions. For doxorubicin comprising prodrugs dilutions started from 100 μM, while for the parent compound doxorubicin dilutions started at 10 μM. […] Seventy-two hours later, compounds were removed together with the supernatants and cells were washed once with PBS to remove excess drugs.
(§2) The WST-1 assay for cell proliferation and viability (Roche, Switzerland) was performed according to manufacturer's protocol. Absorbances were measured at 4 hrs using a Perkin Elmer Ensight multiplate reader, equipped with Kaleido 2.0 software (Perkin Elmer, USA). Cell viability was expressed as a percentage compared to non-treated cells. Absolute IC50 values were extrapolated from a non-linear fitting following the Sigmoidal-4PL regression method using Graphpad Prism 7.0. Likewise, maximal efficacy was determined as 100% minus the cell viability determined when cells are incubated in the presence of a compound. For instance, if 20% of the cells survive incubation in the presence of a compound, then the maximal efficacy of that compound is 100%-20%=80%.
(§3) Selectivity indices (SI) were defined as the ratio of the concentration of drug required to kill 50% of the cells in normal (control, non-cancer) cells, divided by the concentration required to exert the same efficacy in tumor cells: SI=IC50 (control cell)/IC50 (cancer cell), or SI=^HME-1IC50/cancer IC50.

[2] = tested on: HME-1 cells; assay: WST-1 cell viability, normal HME-1 cells; format: cell-based, human; settings: for IC50: read-out: Absolute IC50
Experimental: as §1, §2, §3

[3] = tested on: HCT-116 cells; assay: WST-1 cell viability, HCT-116 colorectal cancer cells; format: cell-based
Experimental: as §1, §2, §3

[4] = tested on: A-172 cells; assay: WST-1 cell viability, A-172 glioblastoma cells; format: cell-based; settings: for IC50: read-out: Absolute IC50
Experimental: as §1, §2, §3

[5] = tested on: U-87 MG cells; assay: WST-1 cell viability, U-87 MG glioblastoma cells; format: cell-based; settings: for IC50: read-out: Absolute IC50
Experimental: as §1, §2, §3

[6] = tested on: MDA-MB-231 cells; assay: WST-1 cell viability, MDA-MB-231 triple negative breast cancer cells; format: cell-based; settings: for IC50: read-out: Absolute IC50
Experimental: as §1, §2, §3

[7] = tested on: MDA-MB-468 cells; assay: WST-1 cell viability, MDA-MB-468 triple negative breast cancer cells; format: cell-based
Experimental: as §1, §2, §3

[8] = tested on: DU145 cells; assay: WST-1 cell viability, DU145 prostate cancer cells; format: cell-based
Experimental: as §1, §2, §3

[9] = tested on: A2780 cells; assay: WST-1 cell viability, A2780 ovarian cancer cells; format: cell-based
Experimental: as §1, §2, §3

[10] = tested on: A2780 Cp cells; assay: WST-1 cell viability, A2780 CpR (cisplatin resistant) ovarian cancer cells; format: cell-based
Experimental: as §1, §2, §3

[11] = tested on: A2058 cells; assay: WST-1 cell viability, A2058 melanoma cells; format: cell-based; settings: for IC50: read-out: Absolute IC50
Experimental: as §1, §2, §3

[12] = tested on: NCI-H292 cells; assay: WST-1 cell viability, NCI-H292 lung cancer cells; format: cell-based
Experimental: as §1, §2, §3

[13] = tested on: Human umbilical vein endothelial cells (HUVEC); assay: WST-1 cell viability, normal HUVEC cells; format: cell-based; settings: 72 hrs
Experimental: as §1, §2, §3

[14] = tested on: U87 MG glioblastoma cells subcutaneously implanted in nude NMRI mice; assay: In vivo activity of PhAc-ALLP-Dox on U87 MG glioblastoma xenograft; set-up: species or system mouse; settings: 30 mg/kg iv, once per week, four administrations
Experimental: The in vivo efficacy of PhAc-ALLP-Dox was tested in a mouse GBM model. U87 MG glioblastoma cells were subcutaneously (SC) implanted in nude NMRI mice. In total, 32 adult (9-10 weeks old) nude female NMRI mice (Janvier, France) were subjected to SC tumor cell grafting in the right flank. In total, 5×10^6 U87 MG cells resuspended in PBS plus Matrigel (1:1) were injected in 200 uL final volume. As soon as the tumors were palpable and reached the volume of 200 mm3 the treatment was started. At day zero, mice were randomly divided into 4 groups, based on the tumor volume, in order to have the following experimental sub-cohorts: • control group receiving the vehicle (PBS pH7.2) with a dose of 5 ml/kg, intravenously (iv), once per week (QW); • PhAc-ALLP-Dox (30 mg/kg iv, QW); • PhAc-ALGP-Dox (154 mg/kg iv, QW); • Dox (5 mg/kg iv, QW).
Treatments were performed once per week for a total of four tail vein administrations/injections (on days 1, 7, 14 and 21). One extra week of observation followed the active treatment phase. During the experiment, tumor volume was measured two times a week and was assessed three-dimensionally with a digital caliper (Mitutoyo, Illinois) using the following formula:
V=4/3π×[(d/2)^2×(D/2)], where d is the minor tumor axis and D is the major tumor axis.

Compound: COc1cccc2c1C(=O)c1c(O)c3c(c(O)c1C2=O)C[C@@](O)(C(=O)CO)C[C@@H]3O[C@H]1C[C@H](NC(=O)[C@@H]2CCCN2C(=O)[C@H](CC(C)C)NC(=O)[C@H](CC(C)C)NC(=O)[C@H](C)NC(=O)CP(=O)(O)O)[C@H](O)[C@H](C)O1 [PhAc-ALLP-Dox, PhAc-ALLP-Doxorubicin] (HELM PEPTIDE1{[O=C(CP(=O)(O)O)[*:2]].A.L.L.P.[COc1cccc2c1C(=O)c1c(O)c3c(c(O)c1C2=O)C[C@@](O)(C(=O)CO)C[C@@H]3O[C@H]1C[C@H](N[*:1])[C@H](O)[C@H](C)O1]}$$$$V2.0)
- cytotoxicity at 72 h, 100 µM [1]: 59.5%
- SI = HME-1 IC50/cancer IC50 ([2]; HME-1 normal cells against themselves (Table 3)): 1.00
- IC50 ([2]; HME-1 normal cells, 72 hrs continuous drug exposure, WST-1 (Table 1)): 36900 nM
- IC50 ([2]; HME-1 normal cells, 72 hrs, WST-1 (Table 4)): 36900 nM
- Maximal efficacy ([2]; HME-1 normal cells, 72 hrs, WST-1, cytotoxicity at highest concentration (Table 5)): 59.5%
- SI = HME-1 IC50/cancer IC50 ([3]; HCT-116 (CrC) vs HME-1 (Table 3)): 3.34
- IC50 ([3]; HCT-116 (CrC), 72 hrs, WST-1 (Table 1), read-out: Absolute IC50): 11100 nM
- Maximal efficacy, cytotoxicity (%) at 100 μM ([3]; HCT-116 (CrC), 72 hrs, WST-1 (Table 2)): 67.49%
- SI = HME-1 IC50/cancer IC50 ([4]; A-172 (GBM) vs HME-1 (Table 3)): 30.54
- SI = HUVEC IC50 / cancer IC50 ([4]; A-172 (GBM), * towards HUVEC cells (Table 6)): *34.4
- SI = iAstro IC50 / cancer IC50 ([4]; A-172 (GBM), ** towards hiPSCs (iAstro) (Table 6)): **15.8
- SI = normal IC50 / cancer IC50 ([4]; A-172 (GBM), selectivity towards HME-1 cells (Table 6)): 30.5
- IC50 ([4]; A-172 (GBM), 72 hrs, WST-1 (Table 1)): 1210 nM
- Maximal efficacy, cytotoxicity (%) at 100 μM ([4]; A-172 (GBM), 72 hrs, WST-1 (Table 2)): 98.08%
- IC50 ([4]; A-172 (GBM), 72 hrs, WST-1 (Table 4)): 1290 nM
- Maximal efficacy ([4]; A-172 (GBM), 72 hrs, WST-1 (Table 5)): 80.9%
- Selectivity index towards hiPSC-derived astrocytes, GBM ([4]; GBM indication as a whole (A-172 and U-87 MG), vs iAstro): 14.9±0.8
- SI = HME-1 IC50/cancer IC50 ([5]; U-87 MG (GBM) vs HME-1 (Table 3)): 128.53
- SI = HUVEC IC50 / cancer IC50 ([5]; U-87 MG (GBM), * towards HUVEC cells (Table 6)): *144.9
- SI = iAstro IC50 / cancer IC50 ([5]; U-87 MG (GBM), ** towards hiPSCs (iAstro) (Table 6)): **14.1
- SI = normal IC50 / cancer IC50 ([5]; U-87 MG (GBM), selectivity towards HME-1 cells (Table 6)): 128.5
- IC50 ([5]; U-87 MG (GBM), 72 hrs, WST-1 (Table 1)): 290 nM
- Maximal efficacy, cytotoxicity (%) at 100 μM ([5]; U-87 MG (GBM), 72 hrs, WST-1 (Table 2)): 94.35%
- IC50 ([5]; U-87 MG (GBM), 72 hrs, WST-1 (Table 4)): 1440 nM
- Maximal efficacy ([5]; U-87 MG (GBM), 72 hrs, WST-1 (Table 5)): 97.1%
- SI = HME-1 IC50/cancer IC50 ([6]; MDA-MB-231 (TNBC) vs HME-1 (Table 3)): 3.85
- SI = HUVEC IC50 / cancer IC50 ([6]; MDA-MB-231 (TNBC), * towards HUVEC cells (Table 6)): *23.6
- SI = normal IC50 / cancer IC50 ([6]; MDA-MB-231 (TNBC), selectivity towards HME-1 cells (Table 6)): 20.9
- IC50 ([6]; MDA-MB-231 (TNBC), 72 hrs, WST-1 (Table 1)): 9570 nM
- Maximal efficacy, cytotoxicity (%) at 100 μM ([6]; MDA-MB-231 (TNBC), 72 hrs, WST-1 (Table 2)): 71.20%
- IC50 ([6]; MDA-MB-231 (TNBC), 72 hrs, WST-1 (Table 4)): 9570 nM
- Maximal efficacy ([6]; MDA-MB-231 (TNBC), 72 hrs, WST-1 (Table 5)): 71.2%
- SI = HME-1 IC50/cancer IC50 ([7]; MDA-MB-468 (TNBC) vs HME-1 (Table 3)): 20.94
- IC50 ([7]; MDA-MB-468 (TNBC), 72 hrs, WST-1 (Table 1), read-out: Absolute IC50): 1760 nM
- Maximal efficacy, cytotoxicity (%) at 100 μM ([7]; MDA-MB-468 (TNBC), 72 hrs, WST-1 (Table 2)): 87.18%
- SI = HME-1 IC50/cancer IC50 ([8]; DU145 (PrC) vs HME-1 (Table 3)): 5.25
- IC50 ([8]; DU145 (PrC), 72 hrs, WST-1 (Table 1), read-out: Absolute IC50): 7020 nM
- Maximal efficacy, cytotoxicity (%) at 100 μM ([8]; DU145 (PrC), 72 hrs, WST-1 (Table 2)): 79.25%
- SI = HME-1 IC50/cancer IC50 ([9]; A2780 (OvC) vs HME-1 (Table 3)): 701.33
- IC50 ([9]; A2780 (OvC), 72 hrs, WST-1 (Table 1), read-out: Absolute IC50): 50 nM
- Maximal efficacy, cytotoxicity (%) at 100 μM ([9]; A2780 (OvC), 72 hrs, WST-1 (Table 2)): 90.59%
- SI = HME-1 IC50/cancer IC50 ([10]; A2780 Cp (OvC) vs HME-1 (Table 3)): 257.22
- Maximal efficacy, cytotoxicity (%) at 100 μM ([10]; A2780 Cp (OvC), 72 hrs, WST-1 (Table 2)): 85.27%
- IC50 ([10]; A2780 Cp (OvC, cisplatin resistant), 72 hrs, WST-1 (Table 1), read-out: Absolute IC50): 140 nM
- SI = HME-1 IC50/cancer IC50 ([11]; A2058 (Melanoma) vs HME-1 (Table 3)): 298.19
- SI = HUVEC IC50 / cancer IC50 ([11]; A2058 (Melanoma), * towards HUVEC cells (Table 6)): *336.1
- SI = normal IC50 / cancer IC50 ([11]; A2058 (Melanoma), selectivity towards HME-1 cells (Table 6)): 298.2
- IC50 ([11]; A2058 (Melanoma), 72 hrs, WST-1 (Table 1)): 120 nM
- Maximal efficacy, cytotoxicity (%) at 100 μM ([11]; A2058 (Melanoma), 72 hrs, WST-1 (Table 2)): 97.56%
- IC50 ([11]; A2058 (Melanoma), 72 hrs, WST-1 (Table 4)): 120 nM
- Maximal efficacy ([11]; A2058 (Melanoma), 72 hrs, WST-1 (Table 5)): 97.6%
- SI = HME-1 IC50/cancer IC50 ([12]; NCI-H292 (NSCLC) vs HME-1 (Table 3)): 6.30
- IC50 ([12]; NCI-H292 (NSCLC), 72 hrs, WST-1 (Table 1), read-out: Absolute IC50): 5860 nM
- Maximal efficacy, cytotoxicity (%) at 100 μM ([12]; NCI-H292 (NSCLC), 72 hrs, WST-1 (Table 2)): 55.15%
- IC50 ([13]; WST-1 (Table 4), read-out: Absolute IC50): 41600 nM
- Maximal efficacy ([13]; WST-1 (Table 5)): 53.1%
- Tumor volume compared to the untreated control group [14]: importantly reduced the tumor volume
